Experimental data taken from US20020137704A1, “Methods of inhibiting host-cell mediated viral replication” (priority 2000, published 2002).

Tests used:
HIV-2 LTR = test: HIV-2 enhancer CAT reporter assay in transfected U937 cells; format: cell-based, Human
Protocol: Cell Culture. Human U937 monocytic cells were maintained in RPMI 1640 medium containing 10% fetal bovine serum (GibcoBRL), penicillin (50 units/ml), streptomycin (50 μg/ml), and L-glutamine (2 mM).
Phosphatase Inhibition. […]
Transfections. 5 μg of CAT reporter construct, pCMV5 PP2Ac, and the empty pCMV5 vector were combined to yield 25 μg total DNA. U937 undergoing logarithmic growth were harvested at 5×10^5 cells/ml and resuspended at 25×10^6 cells/ml in RPMI 1640 media. 10^7 cells (0.4 ml) were aliquoted to 0.4 cm electroporation cuvettes (Invitrogen) and incubated with the appropriate DNA mixture for 5 min at room temperature. The cells were then electroporated using Invitrogen's Electroporator II at a setting of 330 V, 1000 μF, and infinite resistance with an input voltage of approximately 325 V. Following electroporation, the cells from each cotransfection were evenly split ([…]) and placed in separate tissue culture plates in 5 ml of RPMI1640 media+10% FBS. After a period of 12-16 hrs, one group of cells was left untreated while the other received 32 nM TPA for 24 hrs. The cells were then harvested, washed with PBS, and lysed in 0.25 M Tris-HCl (pH 7.5). Protein levels of the lysates were determined by BioRad's colorimetric protein assay (BioRad).
Chloramphenicol Acetyl Transferase (CAT) Assay. For CAT assays, 5-30 μl of cell lysate was combined with 20 μl of 100 mM Tris-HCl (pH 7.5). The final volume was increased to 50 μl with lysis buffer, if necessary, and the mixture incubated for 15 min at 65° C. to inactivate endogenous acetyltransferases. The lysates were then transferred to 7 ml scintillation vials and 200 μl CAT reaction mixture (125 mM Tris-HCl, 1.25 mM chloramphenicol, 0.1 μCi ^3H-acetyl CoA) added. Five ml of Econofluor (Fisher Scientific) scintillation fluid was overlaid and the reaction incubated for 15-90 min before counting. Background and total counts were determined by mixing 200 μl CAT reaction mixture with 5 ml of Econfluor or Scintiverse (Fisher Scientific) respectively. CAT activity was background subtracted and normalized for total amount of protein used.
To test the possibility that PP2A is involved in the activation of the HIV-2 LTR and that PP2A may act on the HIV-2 LTR through the pets site, U937 cells were transfected with an HIV-2 enhancer CAT reporter alone or with pCMV5 PP2Ac, a plasmid encoding the catalytic domain of PP2A. After transfection, cells from each condition were split into an untreated control sample, to assess the baseline effects of PP2A, or a sample that received 32 nM 12-O-tetradecanoyl phorbol-13-acetate (TPA) for 24 hrs. […]

HIV-1 = settings: U1 cells; for inhibition of PMA-stimulated HIV-1 replication: RT assay
U1 cells = test: Cellular viability of U1 cells treated with FST; format: cell-based
Protocol: The cellular viability was >100% for 10 μM FST compared to no treatment and 76.3% for 10 μM FST and PMA compared with PMA alone.

HIV-1 LTR = settings: literature reports; cited from earlier work

| SMILES | increase in CAT activity above baseline (HIV-2 LTR; 32 nM TPA, absence of ectopic PP2Ac, U937 cells, HIV-2 CAT reporter) [fold] | reversal of PMA stimulation of HIV-1 replication (HIV-1; 10 μM, PMA 32 nM) | inhibition of PMA-stimulated HIV-1 replication (HIV-1; PMA 32 nM) | cellular viability compared to no treatment (U1 cells; 10 μM FST) [%] | cellular viability compared with PMA alone (U1 cells; 10 μM FST and PMA) [%] | effect of treatment on cellular viability (U1 cells; treatment with FST) | effect on the HIV-1 LTR (HIV-1 LTR) | effect on synergy between PP2Ac and TPA in activating HIV-2 enhancer CAT reporter (HIV-2 LTR; 5 μg pCMV5 PP2Ac plus TPA, OKA 50-400 nM) | effect of OKA on CAT activity of TPA-treated cells (HIV-2 LTR; OKA 50-400 nM pretreatment 30 min prior to TPA, U937 cells) | maximal increase in CAT reporter activity (HIV-2 LTR; OKA alone for 18 hrs, maximal activity at 200 nM, U937 cells) [fold] | concentration dependence of inhibition of replication (HIV-1; PMA 32 nM, from 50 nM to 200 nM) | inhibition of HIV-1 replication in the absence of PMA (HIV-1; no PMA) |
| --- | --- | --- | --- | --- | --- | --- | --- | --- | --- | --- | --- | --- |
| CCCCCCCCCCCCCC(=O)O[C@@H]1[C@@H](C)[C@@]2(O)[C@@H](C=C(CO)C[C@]3(O)C(=O)C(C)=C[C@@H]23)[C@@H]2C(C)(C)[C@]12OC(C)=O [TPA, 12-O-tetradecanoyl phorbol-13-acetate] | 148 |  |  |  |  |  |  |  |  |  |  |  |
| C[C@@](O)(/C=C/[C@H]1CC=CC(=O)O1)[C@@H](C[C@@H](O)\C=C/C=C\C=C\CO)OP(=O)(O)O [fostreicin] |  | totally reversed PMA stimulation of HIV-1 replication | inhibit PMA-stimulated HIV-1 replication | > 100 | 76.3 | minimally affected |  |  |  |  |  |  |
| C=C1[C@@H](O)[C@@H]2O[C@]3(CC[C@H](/C=C/[C@@H](C)[C@@H]4CC(C)=C[C@@]5(O[C@H](C[C@@](C)(O)C(=O)O)CC[C@H]5O)O4)O3)CC[C@H]2O[C@@H]1[C@@H](O)C[C@H](C)[C@H]1O[C@@]2(CCCCO2)CC[C@H]1C [okadaic acid] |  |  | inhibit PMA-stimulated HIV-1 replication |  |  |  | activate the HIV-1 LTR | significantly reduced in a dose dependent manner | decrease in CAT activity | 150 | inhibited replication in a concentration dependent manner | no inhibition |
